The values below come from ChEMBL document CHEMBL4699572, “Identification of Antifungal Bisphosphocholines from Medicinal Gentiana Species” (2020).

Holding throughout (type): functional
One assay has as its system Aspergillus fumigatus. The assay is described as follows: Antifungal activity against Aspergillus fumigatus ATCC 204305 assessed as reduction in microbial growth after 72 hrs by CLSI based method.
In another assay the test system is Cryptococcus neoformans. The assay is described as follows: Antifungal activity against Cryptococcus neoformans ATCC 90113 assessed as reduction in microbial growth after 72 hrs by CLSI based method.
The next assay deals with Candida albicans. The assay is described as follows: Antifungal activity against Candida albicans ATCC 90028 assessed as reduction in microbial growth after 18 to 24 hrs by CLSI based method. Conditions: time hrs 18-24.
For another assay, the system named is Nakaseomyces glabratus. The assay is described as follows: Antifungal activity against Candida glabrata ATCC 90030 assessed as reduction in microbial growth after 18 to 24 hrs by CLSI based method. Conditions: time hrs 18-24.

Activity calls are given as the source filed them. No cut-off for these calls is given here.

Regarding `C[C@@H]1[C@H](O)[C@@H](C)/C=C/C=C/C=C/C=C/C=C/C=C/C=C/[C@H](O[C@@H]2O[C@H](C)[C@@H](O)[C@H](N)[C@@H]2O)C[C@@H]2O[C@](O)(C[C@@H](O)C[C@@H](O)[C@H](O)CC[C@@H](O)C[C@@H](O)CC(=O)O[C@H]1C)C[C@H](O)[C@H]2C(=O)O` [AMPHOTERICIN B], the MIC (commonly the least concentration at which growth counts as inhibited) in the assay on Aspergillus fumigatus turned out to be 2.5 µg/mL; in the assay on Cryptococcus neoformans, 0.63 µg/mL.

On to `C[N+](C)(C)CCOP(=O)([O-])OCCCCCCCCCCCCCCCCCCCCCCOP(=O)([O-])OCC[N+](C)(C)C`, for which the MIC worked out at 10 µg/mL in the assay on Candida albicans, 1.25 µg/mL with Aspergillus fumigatus, 5 µg/mL with Nakaseomyces glabratus and 0.63 µg/mL in the assay with Cryptococcus neoformans.

Regarding `C[N+](C)(C)CCOP(=O)([O-])OCCCCCCCCCCCCCCCCCCCCCOP(=O)([O-])OCC[N+](C)(C)C`, the outcome with Candida albicans, in the assay with Aspergillus fumigatus, in the assay with Nakaseomyces glabratus and in the assay on Cryptococcus neoformans was inactive.

Consider `C[N+](C)(C)CCOP(=O)([O-])OCCCCCCCCCCCCCCCCCCCCCCCOP(=O)([O-])OCC[N+](C)(C)C`, for which the result in the assay on Candida albicans, with Aspergillus fumigatus, in the assay with Nakaseomyces glabratus and in the assay on Cryptococcus neoformans was inactive.

Consider `C[N+](C)(C)CCOP(=O)([O-])OCCCCCCCCCCCCCCCCCCCCCCCCOP(=O)([O-])OCC[N+](C)(C)C`, for which the result with Candida albicans, in the assay with Aspergillus fumigatus, in the assay on Nakaseomyces glabratus and with Cryptococcus neoformans was inactive.
